We go through two compounds from patent US9096544B2, “Therapeutic compounds” (Wayne State University, priority 2009, dated 2015).

≈ marks a conversion by molar mass, not a printed value. Read-outs that look alike come from different tables or passages of the source.

The solubility is the concentration that dissolves in the medium under given conditions.

Data set [1] relates to MiaPaCa-2 cells. The data set can be described thus: Test I: apoptosis of MiaPaCa-2 pancreatic cancer cells (Annexin V-FITC/PI). The class given is cell-based. As to conditions: 1 μM, 72 h. How it is done:
(§1) Pancreatic cancer cell lines (COLO357, PANC-1, Capan-2, AsPc-1 cells and MiaPaCa-2 cells obtained from American Type Culture Collection; ATCC, Rockville, Md.) were treated with 1 μM 3-Cl-AHPC and compound 16 for various times. Apoptosis in cells were analyzed by flow cytometry using Annexin V-FITC binding together with propidium iodide (PI) staining (Annexin V-FITC apoptosis Detection Kit 1, BD Biosciences, San Diego, Calif.). Data acquisition was done on a FACS Calibur flow cytometer (BD) and analyzed with CellQuest software (BD Biosciences). 3-Cl-AHPC and compound 16 mediated inhibition of cell growth were determined by 3-(4,5-dimethylthiazol-2-yl)-2,5-diphenyltetrazolium bromide (MTT) assay. The cells were seeded on 96-well plates at a density of 4×10^4 cells/well in a volume of 200 μl culture medium. 1 μM AHP3 and 3-Cl-AHPC in DMSO (final concentration 0.1%) were added to the cells for various times. […] After discarding the medium, MTT precipitates were solubilized with 200 μl DMSO and the plates read on a BioTeK Synergy HT (BioTeK Instrument Inc., Vermont) at an absorbance 570 nm. […] The spheroids were stained with acridine orange/ethidium bromide staining and immediately visualized and photographed with fluorescence microscope (OLYMPUS CKX41). […] Then spheroids were visualized and photographed with a fluorescence microscope.

Data set [2] has as its system pancreatic cancer stem cell spheroids. The data set can be described thus: Test J: disaggregation of and apoptosis in pancreatic cancer stem cell spheroids. The format is cell-based. To be noted: for effect on formed spheroids: added to pancreatic cancer stem cell spheroids; for exposure resulting in disaggregation of the spheroid and induction of apoptosis: as little as. On the procedure:
Apoptosis and Growth Inhibition of Pancreatic Cancer Stem Cells (Obtained from PANC-1, Capan-2 and MiaPaCa-2 Cells) by Compound 16 and 3-Cl-AHPC.
The sorted CD44^+/CD24^+ cells were suspended in serum-free stem cell medium containing DMEM/F12 (1:1) supplemented with B27 (Life Technologies, Gaithersburg, Md.), 20 ng/ml EGF (Biomol International, Plymouth, Pa.)), 20 ng/ml fibroblast growth factor (Biomol International, Plymouth, Pa.), and 100 μg/ml gentamycin. Approximately 150-200 cells per well were seeded in an ultra low-attachment 96-well plate (Corning Inc, Lowell, Mass.). 3-Cl-AHPC and compound 16 were added the day after cells were plated or after 7 days of spheroid formation. Spheriods were photographed and measured utilizing a Olympus microscope (OLYMPUS CKX41) and Olympus microscope digital camera with DP2-BSW software (Olympus soft imaging solutions GmbH, Germany).
DMSO (vehicle) and 3-Cl-AHPC treated spheroids were centrifuged at 1000 rpm for 5 minutes, washed in PBS, 22% bovine serum albumin added to the spheroids pellet, 95% ethanol placed on the spheroids pellet and the pellet allowed to harden for 30 minutes. Neutral buffered formalin (10%) was added to fix the cell pellet for at least 2 h and the spheroids were then placed in a labeled plastic tissue embedding cassette containing 10% neutral buffered formalin overnight. The spheroids were processed in a Sakura Tissue-Tek Processor for overnight dehydration in graded ethanol, clearing in xylene and infiltration with paraffin. The spheroids were placed in a 4 μm embedding mold for final paraffin embedding.
The TUNEL assay was performed using the In Situ Cell Death Detection kit, POD (Roche-Applied-Science, Mannheim, Germany) according to the manufacturer's instructions.
The paraffin embedding spheroids were deparaffinized and rehydrated, then tissues sections were incubated with proteinase K solution (10-20 μg/ml) for 30 min. Tissues were then rinsed twice in PBS and reacted with 50 μl of the TUNEL reaction mixture at room temperature for 60 min in a dark, humidified chamber. Sections were again rinsed in PBS and incubated for 30 min with 50 μl of the Converter-POD (RocheApplied-Science) and followed by 3-amino-9-ethylcarbazole (AEC). Sections were then counterstained with hematoxylin. As negative controls, corresponding sections were treated in the same way without terminal, deoxynucleotidyl transferase.

Data set [3] relates to PANC-1 cells. Put plainly: Test I: growth inhibition of PANC-1 cells (MTT). As to conditions: 1 μM. The format is cell-based. How it is done:
as §1

The nature of data set [4]: Test H: aqueous solubility by UV absorbance. The class given is physicochemical. To be noted: for solubility: 22° C. How it is done: Standard curves at the UV λmax (330, 350 and 345 nm for 3-Cl-AHPC, 18 and 16, respectively) were generated using 0.245, 0.163, 0.049 and 0.025 mM 3-Cl-AHPC and 0.380, 0.178, 0.053 and 0.027 mM 18 and 16, which were prepared from 1.0% (wt/vol) solutions of compounds in Me2SO. […] Measurements for maximum solubilities in distilled water (pH 5) and phosphate-buffered saline (PBS, pH 7.2) at 22° C. were made by UV absorbance using solutions obtained after saturation at higher temperatures, overnight incubation at 22° C., and centrifugation to remove undissolved material.

For data set [5], the system named is TF(v-SRC) cells. The data set can be described thus: Annexin V-FITC binding by flow cytometry, TF(v-SRC) cells. The format is cell-based. To be noted: 1 μM, varying times. How it is done: FIG. 3 illustrates the induction of apoptosis and cell death as assessed using Annexin V-FITC binding together with propidium iodide (PI) staining. FFMA-AML and TF(vSRC) cells were exposed to 1 μM 3-Cl-AHPC or compound 16. A) Apoptosis in FFMA-AML and TF(vSRC) cells following 24 and 48 h ARR exposure, respectively. The plots show the distribution of classes of fluorescence intensity versus cell number. The bottom left quadrant represents live cells (both annexin V-FITC and PI negative); the bottom right quadrant represents early apoptotic cells (annexin V-FITC positive but PI negative); and the top right quadrant represents late apoptotic cells (both annexin V-FITC and PI positive). B) Percentage of early apopotic Annexin V-positive cells at the indicated times. […] (p values of <0.05, <0.01 and <0.001 respectively, as determined by the t test).
Apoptosis of cells was determined by (1) acridine orange and ethidium bromide-staining to assess cells with nuclear fragmentation and chromatin condensation as previously described (Farhana L. et al., Cancer Res. 2006; 65:4909-4917) and (2) flow cytometry assessing Annexin V-FITC binding together with propidium iodide staining (Annexin V-FITC apoptosis Detection kit 1, BD Biosciences, San Diego, Calif.). Data acquisition was done on a FACS Calibur flow cytometer (BD) and analyzed with CellQuest software. […]
(In flow cytometry, cells or beads pass a laser one at a time.)

Data set [6] concerns MiaPaCa-2 cells. Put plainly: Test I: growth inhibition of MiaPaCa-2 cells (MTT). The class given is cell-based. To be noted: 1 μM. How it is done: as §1
The test system of data set [7] is AsPc-1 cells. Put plainly: Test I: growth inhibition of AsPc-1 cells (MTT). As to conditions: 1 μM. The format is cell-based. On the procedure: as §1
Data set [8] deals with Capan-2 cells. The data set can be described thus: Test I: growth inhibition of Capan-2 cells (MTT). The format is cell-based. To be noted: 1 μM. On the procedure:
as §1

As for `O=C(O)C=Cc1ccc(-c2ccc(O)c(C34CC5CC(CC(C5)C3)C4)c2)c(Cl)c1` [Compound 3-Cl-AHPC, 4-[3-(1-adamantyl)-4-hydroxyphenyl]-3-chlorocinnamic acid, reference compound], the induction of apoptosis result in data set [1] is on record as “Apoptosis was also noted”. In data set [2], the “effect on formed spheroids” value is “resulted in their disaggregation and the induction of apoptosis in the cells comprising the spheroid”. The “exposure resulting in disaggregation of the spheroid and induction of apoptosis” value in data set [2] was 500 nM. Also, the inhibition of growth entry in data set [3], in data set [6], in data set [7] and in data set [8] was “significant inhibition of growth” throughout. For the same compound, the “Solubility (μM) at 22° C. PBS (pH 7.2)” value in data set [4] (PBS pH 7.2) is listed as “Not detectable”. Besides, in data set [4] (thermodynamic from solid, distilled water pH 5, read-out: Solubility (μM) at 22° C. Distilled water (pH 5)), the solubility came to 4.5 µM (≈ 1.84 µg/mL). Also, the “annexin V-FITC-positive cells” value in data set [5] is recorded as “progressive increase in annexin V-FITC-positive cells with time”.

In the case of `O=C(O)/C=C/c1cnc(-c2ccc(O)c(C34CC5CC(CC(C5)C3)C4)c2)nc1` [Compound 16, (E)-3-[2-(3-(1-Adamantyl)-4-hydroxyphenyl)-5-pyrimidinyl]-2-propenoic acid], the induction of apoptosis result in data set [1] is reported as “Apoptosis was also noted”. Moreover, in data set [2], the “effect on formed spheroids” value is “resulted in their disaggregation and the induction of apoptosis in the cells comprising the spheroid”. Moreover, the “exposure resulting in disaggregation of the spheroid and induction of apoptosis” value in data set [2] was 500 nM. Besides, the inhibition of growth entry in data set [3], in data set [6], in data set [7] and in data set [8] was “significant inhibition of growth” each time. The solubility in data set [4] (distilled water pH 5, read-out: Solubility (μM) at 22° C. Distilled water (pH 5)) came to 54 µM (≈ 20.3 µg/mL); in data set [4] (phosphate-buffered saline, aqueous buffer, thermodynamic from solid, PBS pH 7.2, read-out: Solubility (μM) at 22° C. PBS (pH 7.2)), 440 µM (≈ 166 µg/mL). The “annexin V-FITC-positive cells” value in data set [5] is on record as “progressive increase in annexin V-FITC-positive cells with time”.
